Measurements from patent US20100144712A1 (priority 2007, published 2010).
Values after ≈ are worked out from the molar mass of the structure shown.

Columns and labels:
Format in all cases: cell-based
[1] = system: Candida albican ATCC MYA-575; experiment: In vitro antifungal activity (MIC80), Candida albican ATCC MYA-575; conditions: Candida; Table 2, MYA 575; read-out: Minimal inhibitory concentration (MIC80)
Procedure, shortened: (§1)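 MIC80 is the lowest concentration that cuts growth by 80% compared with untreated cells, with alamarBlue as the growth read-out. Compounds were serially diluted in RPMI 1640 (0.25–256 […]; DMSO 2% v/v final) and added to 1.0×10^3–5.0×10^3 CFU/ml yeast suspensions, in duplicate runs.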

[2] = system: Candida albican ATCC MYA-574; experiment: In vitro antifungal activity (MIC80), Candida albican ATCC MYA-574; conditions: Candida; Table 2, MYA 574; read-out: Minimal inhibitory concentration (MIC80)
Procedure, shortened: as §1

[3] = system: Candida albican ATCC 96901; experiment: In vitro antifungal activity (MIC80), Candida albican ATCC 96901; conditions: Candida, ATCC96901; Table 2, ATCC 96901; read-out: Minimal inhibitory concentration (MIC80)
Procedure, shortened: as §1

[4] = system: Candida albican ATCC MYA-1003; experiment: In vitro antifungal activity (MIC80), Candida albican ATCC MYA-1003; conditions: Candida; Table 2, MYA 1003; read-out: Minimal inhibitory concentration (MIC80)
Procedure, shortened: as §1

[5] = system: Candida albican ATCC MYA-576; experiment: In vitro antifungal activity (MIC80), Candida albican ATCC MYA-576; conditions: Candida; Table 2, MYA 576; read-out: Minimal inhibitory concentration (MIC80)
Procedure, shortened: as §1

[6] = system: Candida albican ATCC 62342; experiment: In vitro antifungal activity (MIC80), Candida albican ATCC 62342; conditions: Candida, ATCC62342; Table 2, 62342; read-out: Minimal inhibitory concentration (MIC80)
Procedure, shortened: as §1

[7] = system: Candida albican ATCC 90873; experiment: In vitro antifungal activity (MIC80), Candida albican ATCC 90873; conditions: Candida, ATCC90873; Table 2, ATCC 90873; read-out: Minimal inhibitory concentration (MIC80)
Procedure, shortened: as §1

[8] = system: Candida albican ATCC 204276; experiment: In vitro antifungal activity (MIC80), Candida albican ATCC 204276; conditions: ATCC204276, Table 2, 204276, read-out: Minimal inhibitory concentration (MIC80)
Method: (§2) In vitro antifungal activities of the inventive antifungal compounds were evaluated using test strains including Candida albican (ATCC 90873, 204276, 62342, 64124, 64550, 96901, MYA-573, MYA-574, MYA-575, MYA-576, MYA-1003) and Aspergillus fumigatus (ATCC 16424). Test samples and positive control samples were prepared by dissolving the inventive compounds and comparative compounds, i.e., amphotericin B, fluconazole and itraconazole, in DMSO, respectively, and each successively diluted with medium to obtain test and positive control solutions having test compound concentrations of 0.125 μg/ml to a maximum concentration not generating turbidity. Minimal inhibitory concentration (MIC80) of each compound was determined as the lowest concentration of the test compounds required to reduce growth by 80% relative to a control strain not treated.
(§3) 1) Test strain: Candida albican ATCC 90873, 204276, 62342, 64124, 64550, 96901, MYA-573, MYA-574, MYA-575, MYA-576, MYA-1003, and Aspergillus fumigatus ATCC 16424 were commercially obtained from The American Type Culture Collection (ATCC) and subcultured in CHEMON Co. Ltd. (amphotericin B was commercially purchased from Sigma, and fluconazole and itraconazole were prepared according to methods described in British Patent No. 2,099,818; and U.S. Pat. No. 4,267,179, respectively).
(§4) 2) Medium and culture condition: Candida albican was cultured in Sabourad Dextrose Agar, YM Agar or Potato Dextrose Agar according to ATCC information at a temperature of 37° C., 35° C., 30° C. or 25° C. Aspergillus fumigatus was cultured in Malt Extract Agar or Potato Dextrose Agar at a temperature ranging from 24 to 27° C.
(§5) 3) Preparation of test samples: the inventive compounds and comparative compounds were each diluted with DMSO to obtain 1 to 2 ml of a test sample in a concentration of 100-folds of the determining maximum concentration (256 μg/ml).
(§6) The test samples were each successively diluted with RPMI 1640 to obtain test solutions having concentrations of […] in a 12×75 mm sterilized disposable culture tube. The final concentration of DMSO was adjusted to […] (v/v).
(§7) 5) Preparation of strain solution and inoculation
(§8) Candida albican strains were each subcultured in Sabourad Dextrose Agar, YM Agar or Potato Dextrose Agar medium at 35° C. for 2˜3 days. In the case of yeasts, a single colony was taken from prominent colonies and suspended in 0.85% sterile physiological saline solution and the turbidity of the suspension was adjusted to 80˜82% at 530 nm, and then diluted 50-fold with RPMI 1640 medium to 1.0×10^3˜5.0×10^3 CFU/ml. The turbidity of fungi was adjusted to 80˜82% and the suspension was diluted 50-fold to […]. Aspergillus fumigatus strains were subcultured in Malt Extract Agar for 7˜10 days, and a single colony was taken from prominent colonies and suspended in 0.85% sterile physiological saline solution and the suspension was adjusted to 0.108 at 530 nm, and then diluted 1000-fold with RPMI 1640 medium to 0.4×10^2˜5×10^4 CFU/ml. The turbidity of fungi was adjusted to 80˜82% and the suspension was diluted 50-fold to 0.4102˜0.5104 CFU/ml.
(§9) The strain solutions thus obtained were each seeded into a sterilized 96-well microplate, 0.1 ml of each test solution were added thereto, and […] of alamarblue was treated to each well (Biosource, #DAL1100). This procedure was repeated 2 times.
(§10) Minimal inhibitory concentration (MIC80) of each compound was determined as the lowest concentration of the test compounds required to reduce growth by 80% relative to a control strain not treated.

[9] = system: Aspergillus fumigatus (ATCC 16424); experiment: In vitro antifungal activity (MIC80), Aspergillus fumigatus ATCC 16424; conditions: Aspergillus fumigatus, ATCC16424, Table 2, ATCC 16424; read-out: Minimal inhibitory concentration (MIC80)
Method: as §2, §3, §4, §5, §6, §7, §8, §9, §10
MIC80 of each of the compounds of which antifungal activities can be confirmed by Table 2 was determined using other test strains, i.e., Aspergillus fumigatus ATCC 16424 and MYA-1163, Aspergillus terreus ATCC 28301, Aspergillus flavus ATCC MYA-1004, and Aspergillus niger ATCC 9142.

[10] = system: Candida albican ATCC 64124; experiment: In vitro antifungal activity (MIC80), Candida albican ATCC 64124; conditions: Candida, ATCC64124; Table 2, 64124; read-out: Minimal inhibitory concentration (MIC80)
Procedure, shortened: as §1

[11] = system: Candida albican ATCC MYA-573; experiment: In vitro antifungal activity (MIC80), Candida albican ATCC MYA-573; conditions: Candida; Table 2, MYA 573; read-out: Minimal inhibitory concentration (MIC80)
Procedure, shortened: as §1

[12] = system: Candida albican ATCC 64550; experiment: In vitro antifungal activity (MIC80), Candida albican ATCC 64550; conditions: Candida, ATCC64550; Table 2, 64550; read-out: Minimal inhibitory concentration (MIC80)
Procedure, shortened: as §1

MIC80 [1] [µg/mL] | MIC80 [2] [µg/mL] | MIC80 [3] [µg/mL] | MIC80 [4] [µg/mL] | MIC80 [5] [µg/mL] | MIC80 [6] [µg/mL] | MIC80 [7] [µg/mL] | MIC80 [8] [µg/mL] | MIC80 [9] [µg/mL] | MIC80 [10] [µg/mL] | MIC80 [11] [µg/mL] | MIC80 [12] [µg/mL] | Structure (SMILES)
> 128 | > 128 | 32 (≈ 58.9 µM) | > 128 | 0.125 (≈ 0.23 µM) | 4 (≈ 7.36 µM) | 0.125 (≈ 0.23 µM) | 0.125 (≈ 0.23 µM) | 1 (≈ 1.84 µM) | > 128 | 4 (≈ 7.36 µM) | 4 (≈ 7.36 µM) | C[C@@H](N1CCN(C(=O)c2nc(-c3ccc(F)cc3)ns2)CC1)[C@](O)(Cn1cncn1)c1ccc(F)cc1F [Example 52, (3-(4-fluorophenyl)-1,2,4-thiadiazol-5-yl)(4-((2R,3R)-3-(2,4-difluorophenyl)-3-hydroxy-4-(1H-1,2,4-triazol-1-yl)butan-2-yl)piperazin-1-yl)methanone]
4 (≈ 6.6 µM) | 4 (≈ 6.6 µM) | 8 (≈ 13.2 µM) | > 128 | 0.125 (≈ 0.206 µM) | 0.5 (≈ 0.826 µM) | 0.25 (≈ 0.413 µM) | 0.25 (≈ 0.413 µM) | 1 (≈ 1.65 µM) | 8 (≈ 13.2 µM) | 1 (≈ 1.65 µM) | 2 (≈ 3.3 µM) | Cc1ccc(C(=O)c2cnc3sc(C(=O)N4CCN([C@H](C)[C@](O)(Cn5cncn5)c5ccc(F)cc5F)CC4)cn23)cc1 [Example 56, (4-((2R,3R)-3-(2,4-difluorophenyl)-3-hydroxy-4-(1H-1,2,4-triazol-1-yl)butan-2-yl)piperazin-1-yl)(5-(4-methylbenzoyl)-imidazo[2,1-b]-thiazol-2-yl)methanone]

Second part, the compound before the results:

Structure (SMILES) | MIC80 [1] [µg/mL] | MIC80 [2] [µg/mL] | MIC80 [3] [µg/mL] | MIC80 [4] [µg/mL] | MIC80 [5] [µg/mL] | MIC80 [6] [µg/mL] | MIC80 [7] [µg/mL] | MIC80 [8] [µg/mL] | MIC80 [9] [µg/mL] | MIC80 [10] [µg/mL] | MIC80 [11] [µg/mL] | MIC80 [12] [µg/mL]
C[C@@H](N1CCN(c2ccc3ccccc3n2)CC1)[C@](O)(Cn1cncn1)c1ccc(F)cc1F [Example 19, (2R,3R)-2-(2,4-difluorophenyl)-3-(4-(quinolin-2-yl)piperazin-1-yl)-1-(1H-1,2,4-triazol-1-yl)butan-2-ol] | > 128 | > 128 | 0.5 (≈ 1.08 µM) | > 128 | 0.125 (≈ 0.269 µM) | 0.25 (≈ 0.538 µM) | 0.125 (≈ 0.269 µM) | 0.125 (≈ 0.269 µM) | 0.125 (≈ 0.269 µM) | 4 (≈ 8.61 µM) | 0.25 (≈ 0.538 µM) | 0.5 (≈ 1.08 µM)
C[C@@H](N1CCN(Cc2ccco2)CC1)[C@](O)(Cn1cncn1)c1ccc(F)cc1F [Example 43, (2R,3R)-2-(2,4-difluorophenyl)-3-(4-((furan-2-yl)methyl)piperazin-1-yl)-1-(1H-1,2,4-triazol-1-yl)butan-2-ol] | 128 (≈ 307 µM) | 128 (≈ 307 µM) | 64 (≈ 153 µM) | > 128 | 0.25 (≈ 0.599 µM) | 4 (≈ 9.58 µM) | 0.125 (≈ 0.299 µM) | 0.125 (≈ 0.299 µM) | 64 (≈ 153 µM) | 64 (≈ 153 µM) | 4 (≈ 9.58 µM) | 16 (≈ 38.3 µM)
C[C@@H](N1CCN(Cc2cccs2)CC1)[C@](O)(Cn1cncn1)c1ccc(F)cc1F [Example 44, (2R,3R)-2-(2,4-difluorophenyl)-3-(4-((thiophen-2-yl)methyl)piperazin-1-yl)-1-(1H-1,2,4-triazol-1-yl)butan-2-ol] | 32 (≈ 73.8 µM) | 32 (≈ 73.8 µM) | 64 (≈ 148 µM) | > 128 | 0.125 (≈ 0.288 µM) | 4 (≈ 9.23 µM) | 0.125 (≈ 0.288 µM) | 0.125 (≈ 0.288 µM) | 0.5 (≈ 1.15 µM) | 32 (≈ 73.8 µM) | 2 (≈ 4.61 µM) | 4 (≈ 9.23 µM)
CC(N1CCN(C(=O)c2cn3c(C(=O)c4ccccc4)cnc3s2)CC1)C(O)(Cn1cncn1)c1ccc(F)cc1F [Example 55, (4-((2R,3R)-3-(2,4-difluorophenyl)-3-hydroxy-4-(1H-1,2,4-triazol-1-yl)butan-2-yl)piperazin-1-yl)(5-benzoyl-imidazo[2,1,-b]-thiazol-2-yl)methanone] | 8 (≈ 13.5 µM) | 8 (≈ 13.5 µM) | 8 (≈ 13.5 µM) | > 128 | 0.125 (≈ 0.211 µM) | 0.5 (≈ 0.845 µM) | 0.125 (≈ 0.211 µM) | 0.125 (≈ 0.211 µM) | 1 (≈ 1.69 µM) | 16 (≈ 27 µM) | 1 (≈ 1.69 µM) | 4 (≈ 6.76 µM)
COc1ccc(C(=O)c2cnc3sc(C(=O)N4CCN(C(C)C(O)(Cn5cncn5)c5ccc(F)cc5F)CC4)cn23)cc1 (stereo not drawn) [Example 57] | 8 (≈ 12.9 µM) | 8 (≈ 12.9 µM) | 8 (≈ 12.9 µM) | > 128 | 0.125 (≈ 0.201 µM) | 0.5 (≈ 0.804 µM) | 0.125 (≈ 0.201 µM) | 0.125 (≈ 0.201 µM) | 0.5 (≈ 0.804 µM) | 8 (≈ 12.9 µM) | 1 (≈ 1.61 µM) | 4 (≈ 6.43 µM)
